Assay: xn = mol fraction of the nth substance listed
Conditions: 93.2 kPa

**Q.** Which results are given for `CC(=O)[O-].CCCC[NH3+]` + CCO?
**A.** speed of sound (293.15 K, x1 = 0.0501): 1196.2 m/s; viscosity (293.15 K, x1 = 0.0501): 1.96 mPa·s; speed of sound (293.15 K, x1 = 0.0992): 1225.1 m/s; viscosity (293.15 K, x1 = 0.0992): 2.97 mPa·s; speed of sound (293.15 K, x1 = 0.2511): 1296.4 m/s; viscosity (293.15 K, x1 = 0.2511): 9.6 mPa·s; speed of sound (293.15 K, x1 = 0.35): 1332.8 m/s; viscosity (293.15 K, x1 = 0.35): 19.2 mPa·s; speed of sound (293.15 K, x1 = 0.3999): 1349.1 m/s; viscosity (293.15 K, x1 = 0.3999): 26.7 mPa·s; speed of sound (293.15 K, x1 = 0.4483): 1363.2 m/s; viscosity (293.15 K, x1 = 0.4483): 36.5 mPa·s; speed of sound (293.15 K, x1 = 0.5503): 1390.1 m/s; viscosity (293.15 K, x1 = 0.5503): 69.5 mPa·s; speed of sound (293.15 K, x1 = 0.6002): 1402 m/s; viscosity (293.15 K, x1 = 0.6002): 94 mPa·s; speed of sound (293.15 K, x1 = 0.6511): 1413.7 m/s; viscosity (293.15 K, x1 = 0.6511): 128 mPa·s; speed of sound (293.15 K, x1 = 0.9015): 1466 m/s; viscosity (293.15 K, x1 = 0.9015): 585 mPa·s; speed of sound (293.15 K, x1 = 0.9493): 1476.4 m/s; viscosity (293.15 K, x1 = 0.9493): 797 mPa·s; speed of sound (293.15 K, x1 = 1): 1488 m/s; viscosity (293.15 K, x1 = 1): 1103 mPa·s; speed of sound (298.15 K, x1 = 0.0501): 1179.2 m/s; viscosity (298.15 K, x1 = 0.0501): 1.76 mPa·s; speed of sound (298.15 K, x1 = 0.0992): 1208.3 m/s; viscosity (298.15 K, x1 = 0.0992): 2.65 mPa·s; speed of sound (298.15 K, x1 = 0.15): 1234.9 m/s; viscosity (298.15 K, x1 = 0.15): 3.94 mPa·s; speed of sound (298.15 K, x1 = 0.2001): 1258.4 m/s; viscosity (298.15 K, x1 = 0.2001): 5.77 mPa·s; speed of sound (298.15 K, x1 = 0.2511): 1280.1 m/s; viscosity (298.15 K, x1 = 0.2511): 8.32 mPa·s; speed of sound (298.15 K, x1 = 0.3001): 1299 m/s; viscosity (298.15 K, x1 = 0.3001): 11.6 mPa·s; speed of sound (298.15 K, x1 = 0.35): 1316.6 m/s; viscosity (298.15 K, x1 = 0.35): 16.3 mPa·s; speed of sound (298.15 K, x1 = 0.4483): 1347.1 m/s; viscosity (298.15 K, x1 = 0.4483): 30.3 mPa·s; speed of sound (298.15 K, x1 = 0.4987): 1361 m/s; viscosity (298.15 K, x1 = 0.4987): 41.2 mPa·s; speed of sound (298.15 K, x1 = 0.6511): 1397.6 m/s; viscosity (298.15 K, x1 = 0.6511): 101.1 mPa·s; speed of sound (298.15 K, x1 = 0.7988): 1428.3 m/s; viscosity (298.15 K, x1 = 0.7988): 235 mPa·s; speed of sound (298.15 K, x1 = 0.9015): 1448.3 m/s; viscosity (298.15 K, x1 = 0.9015): 424 mPa·s; speed of sound (298.15 K, x1 = 0.9493): 1457.8 m/s; viscosity (298.15 K, x1 = 0.9493): 566 mPa·s; speed of sound (298.15 K, x1 = 1): 1468.3 m/s; viscosity (298.15 K, x1 = 1): 765 mPa·s; speed of sound (303.15 K, x1 = 0.0992): 1191.7 m/s; viscosity (303.15 K, x1 = 0.0992): 2.37 mPa·s; speed of sound (303.15 K, x1 = 0.15): 1218.5 m/s; viscosity (303.15 K, x1 = 0.15): 3.5 mPa·s; speed of sound (303.15 K, x1 = 0.2001): 1242.1 m/s; viscosity (303.15 K, x1 = 0.2001): 5.08 mPa·s; speed of sound (303.15 K, x1 = 0.2511): 1263.9 m/s; viscosity (303.15 K, x1 = 0.2511): 7.24 mPa·s; speed of sound (303.15 K, x1 = 0.3001): 1282.9 m/s; viscosity (303.15 K, x1 = 0.3001): 10 mPa·s; speed of sound (303.15 K, x1 = 0.35): 1300.6 m/s; viscosity (303.15 K, x1 = 0.35): 13.9 mPa·s; speed of sound (303.15 K, x1 = 0.3999): 1317.1 m/s; viscosity (303.15 K, x1 = 0.3999): 18.9 mPa·s; speed of sound (303.15 K, x1 = 0.4483): 1331.2 m/s; viscosity (303.15 K, x1 = 0.4483): 25.4 mPa·s; speed of sound (303.15 K, x1 = 0.4987): 1345.2 m/s; viscosity (303.15 K, x1 = 0.4987): 34.1 mPa·s; speed of sound (303.15 K, x1 = 0.5503): 1358.3 m/s; viscosity (303.15 K, x1 = 0.5503): 45.9 mPa·s; speed of sound (303.15 K, x1 = 0.6002): 1370.2 m/s; viscosity (303.15 K, x1 = 0.6002): 60.7 mPa·s; speed of sound (303.15 K, x1 = 0.6511): 1381.7 m/s; viscosity (303.15 K, x1 = 0.6511): 80.6 mPa·s; speed of sound (303.15 K, x1 = 0.7008): 1392.4 m/s; viscosity (303.15 K, x1 = 0.7008): 106 mPa·s; speed of sound (303.15 K, x1 = 0.7495): 1402.4 m/s; viscosity (303.15 K, x1 = 0.7495): 138 mPa·s; speed of sound (303.15 K, x1 = 0.7988): 1412.2 m/s; viscosity (303.15 K, x1 = 0.7988): 180 mPa·s; speed of sound (303.15 K, x1 = 0.8496): 1421.9 m/s; viscosity (303.15 K, x1 = 0.8496): 238 mPa·s; speed of sound (303.15 K, x1 = 0.9015): 1431.5 m/s; viscosity (303.15 K, x1 = 0.9015): 313 mPa·s; speed of sound (303.15 K, x1 = 0.9493): 1440.5 m/s; viscosity (303.15 K, x1 = 0.9493): 412 mPa·s; speed of sound (308.15 K, x1 = 0.0501): 1145.8 m/s; viscosity (308.15 K, x1 = 0.0501): 1.44 mPa·s; speed of sound (308.15 K, x1 = 0.0992): 1175.2 m/s; viscosity (308.15 K, x1 = 0.0992): 2.13 mPa·s; speed of sound (308.15 K, x1 = 0.15): 1202.1 m/s; viscosity (308.15 K, x1 = 0.15): 3.11 mPa·s; speed of sound (308.15 K, x1 = 0.2001): 1225.9 m/s; viscosity (308.15 K, x1 = 0.2001): 4.49 mPa·s; speed of sound (308.15 K, x1 = 0.2511): 1247.8 m/s; viscosity (308.15 K, x1 = 0.2511): 6.34 mPa·s; speed of sound (308.15 K, x1 = 0.3001): 1266.9 m/s; viscosity (308.15 K, x1 = 0.3001): 8.67 mPa·s; speed of sound (308.15 K, x1 = 0.4483): 1315.5 m/s; viscosity (308.15 K, x1 = 0.4483): 21.4 mPa·s; speed of sound (308.15 K, x1 = 0.4987): 1329.5 m/s; viscosity (308.15 K, x1 = 0.4987): 28.4 mPa·s; speed of sound (308.15 K, x1 = 0.5503): 1342.7 m/s; viscosity (308.15 K, x1 = 0.5503): 37.9 mPa·s; speed of sound (308.15 K, x1 = 0.6002): 1354.6 m/s; viscosity (308.15 K, x1 = 0.6002): 49.5 mPa·s; speed of sound (308.15 K, x1 = 0.6511): 1366.1 m/s; viscosity (308.15 K, x1 = 0.6511): 65 mPa·s; speed of sound (308.15 K, x1 = 0.7008): 1376.8 m/s; viscosity (308.15 K, x1 = 0.7008): 84.2 mPa·s; speed of sound (308.15 K, x1 = 0.7495): 1386.7 m/s; viscosity (308.15 K, x1 = 0.7495): 109 mPa·s; speed of sound (308.15 K, x1 = 0.7988): 1396.3 m/s; viscosity (308.15 K, x1 = 0.7988): 140 mPa·s; speed of sound (308.15 K, x1 = 0.9015): 1415.3 m/s; viscosity (308.15 K, x1 = 0.9015): 236 mPa·s; speed of sound (308.15 K, x1 = 0.9493): 1423.9 m/s; viscosity (308.15 K, x1 = 0.9493): 305 mPa·s; speed of sound (308.15 K, x1 = 1): 1433 m/s; viscosity (308.15 K, x1 = 1): 397 mPa·s; speed of sound (313.15 K, x1 = 0.0992): 1158.9 m/s; viscosity (313.15 K, x1 = 0.0992): 1.93 mPa·s; speed of sound (313.15 K, x1 = 0.2511): 1231.9 m/s; viscosity (313.15 K, x1 = 0.2511): 5.58 mPa·s; speed of sound (313.15 K, x1 = 0.35): 1269 m/s; viscosity (313.15 K, x1 = 0.35): 10.3 mPa·s; speed of sound (313.15 K, x1 = 0.3999): 1285.6 m/s; viscosity (313.15 K, x1 = 0.3999): 13.9 mPa·s; speed of sound (313.15 K, x1 = 0.4987): 1314.1 m/s; viscosity (313.15 K, x1 = 0.4987): 24 mPa·s; speed of sound (313.15 K, x1 = 0.5503): 1327.3 m/s; viscosity (313.15 K, x1 = 0.5503): 31.6 mPa·s; speed of sound (313.15 K, x1 = 0.6002): 1339.2 m/s; viscosity (313.15 K, x1 = 0.6002): 40.9 mPa·s; speed of sound (313.15 K, x1 = 0.7008): 1361.4 m/s; viscosity (313.15 K, x1 = 0.7008): 68.1 mPa·s; speed of sound (313.15 K, x1 = 0.7495): 1371.3 m/s; viscosity (313.15 K, x1 = 0.7495): 86.6 mPa·s; speed of sound (313.15 K, x1 = 0.7988): 1380.9 m/s; viscosity (313.15 K, x1 = 0.7988): 110 mPa·s; speed of sound (313.15 K, x1 = 0.8496): 1390.4 m/s; viscosity (313.15 K, x1 = 0.8496): 141 mPa·s; speed of sound (313.15 K, x1 = 0.9015): 1399.6 m/s; viscosity (313.15 K, x1 = 0.9015): 181 mPa·s; speed of sound (313.15 K, x1 = 1): 1416.7 m/s; viscosity (313.15 K, x1 = 1): 295 mPa·s

Reference: a compilation of properties of binary mixtures (doi:10.1007/s10973-018-7399-0)
